Activity calls are given as the source filed them. No cut-off for these calls is given here.
Key:
[1] = system: Human immunodeficiency virus 1; assay: Antiviral activity against multidrug-resistant HIV1 isolate B containing protease L10I, K14R, L33I, M36I,M46I, F53I, K55R, I62V, L63P, A71V, G73S, V82A, L90M, and I93L mutant infected in human PHA-PBMC cells by p24 Gag protein production inhibition assay; settings: Human immunodeficiency virus 1, isolate B
[2] = system: Human immunodeficiency virus 1; assay: Antiviral activity against HIV1 NL4-3 infected in human MT4 cells at 1 uM after 20 passages by MTT assay; type: functional, organism-based
[3] = system: Human immunodeficiency virus 1; assay: Antiviral activity against multidrug-resistant HIV1 isolate C containing protease L10I, I15V, K20R, L24I, M36I, M46L, I54V, I62V, L63P, K70Q, V82A, and L89M mutant infected in human PHA-PBMC cells by p24 Gag protein production inhibition assay; settings: Human immunodeficiency virus 1, isolate C
[4] = Cytotoxicity against human MT2 cells after 7 days by MTT assay; type: cell-based
[5] = system: Human immunodeficiency virus 2; assay: Antiviral activity against HIV2 ROD infected in human MT2 cells by MTT assay; type: functional, organism-based; settings: Human immunodeficiency virus 2, ISOLATE ROD
[6] = system: Human immunodeficiency virus 1; assay: Antiviral activity against HIV1 expressing protease L10F/M46I/T91S mutant infected in human MT4 cells selected at 1 uM of GRL-246 by MTT assay; type: functional, organism-based; settings: Human immunodeficiency virus 1, MT4
[7] = system: Human immunodeficiency virus 1; assay: Antiviral activity against multidrug-resistant HIV1 isolate MM containing L10I, K43T, M46L, I54V, L63P, A71V, V82A, L90M, and Q92K mutant infected in human PHA-PBMC cells by p24 Gag protein production inhibition assay; settings: Human immunodeficiency virus 1, isolate MM
[8] = system: Human immunodeficiency virus 1; assay: Antiviral activity against HIV1 expressing protease L10F/M46M,I/Q61Q mutant infected in human MT4 cells selected at 1 uM of GRL-396 by MTT assay; type: functional, organism-based; settings: Human immunodeficiency virus 1, MT4
[9] = system: Human immunodeficiency virus 1; assay: Ratio of EC50 for multidrug-resistant HIV1 isolate JSL to EC50 for wild type HIV1 ERS104 containing protease […] infected in human PHA-PBMC cells
[10] = system: Human immunodeficiency virus 1; assay: Antiviral activity against HIV1 expressing protease L10F/M46L/I50V/A71Vmutant infected in human MT4 cells selected at 1 uM of GRL-286 by MTT assay; type: functional, organism-based; settings: Human immunodeficiency virus 1, MT4
[11] = system: Human immunodeficiency virus 1; assay: Antiviral activity against HIV1 expressing protease L10I/G48V/I54V/A71V/I84V/L90M mutant infected in human MT4 cells selected at 5 uM of saquinavir by p24 Gag protein production inhibition assay; settings: Human immunodeficiency virus 1, MT4
[12] = system: Human immunodeficiency virus 1; assay: Antiviral activity against multidrug-resistant HIV1 isolate JSL containing L10I, L24I, I33F, E35D, M36I, N37S, M46L, I54V, R57K, I62V, L63P, A71V, G73S, and V82A mutant infected in human PHA-PBMC cells by p24 Gag protein production inhibition assay; settings: Human immunodeficiency virus 1, isolate JSL
[13] = system: Human immunodeficiency virus 1; assay: Antiviral activity against HIV1 NL4-3 infected in human MT4 cells after 50 passages by MTT assay; type: functional, organism-based
[14] = system: Human immunodeficiency virus 1; assay: Antiviral activity against wild type HIV1 NL4-3 infected in human MT4 cells by p24 Gag protein production inhibition assay; settings: Human immunodeficiency virus 1, NL4-3, MT4
[15] = system: Human immunodeficiency virus 1; assay: Ratio of EC50 for multidrug-resistant HIV1 isolate G containing L10I, V11I, T12E, I15V, L19I,R41K, M46L, L63P, A71T, V82A, and L90M mutant to EC50 for wild type HIV1 ERS104 containing protease […] infected in human PHA-PBMC cells; type: functional
[16] = molecular target: Protease (Human immunodeficiency virus 1) (UniProt Q9YQ12); assay: Inhibition of protease dimerization in HIV1 infected in COS7 cells at 0.1 uM by FRET based assay; type: cell-based; settings: COS-7
[17] = system: Human immunodeficiency virus 1; assay: Antiviral activity against HIV1 expressing protease L10I/L24I/M46I/V82I/I84V mutant infected in human MT4 cells selected after 50 passages of GRL-216 by MTT assay; type: functional, organism-based; settings: Human immunodeficiency virus 1, MT4
[18] = system: Human immunodeficiency virus 1; assay: Antiviral activity against multidrug-resistant HIV1 isolate TM containing L10I, K14R, R41K, M46L, I54V, L63P, A71V, V82A, L90M, and I93L mutant infected in human PHA-PBMC cells by p24 Gag protein production inhibition assay; settings: Human immunodeficiency virus 1, isolate TM
[19] = system: Human immunodeficiency virus 1; assay: Antiviral activity against HIV1 expressing protease L10F/D30N/K45I/A71V/T74S mutant infected in human MT4 cells selected at 5 uM of nelfinavir by MTT assay; type: functional, organism-based; settings: Human immunodeficiency virus 1, MT4
[20] = system: Human immunodeficiency virus 1; assay: Antiviral activity against HIV1 NL4-3 infected in human MT4 cells at 1 uM after 33 passages by MTT assay; type: functional, organism-based
[21] = system: Human immunodeficiency virus 2; assay: Antiviral activity against HIV2 EHO infected in human MT2 cells by MTT assay; type: functional, organism-based; settings: Human immunodeficiency virus 2, EHO
[22] = system: Human immunodeficiency virus 1; assay: Antiviral activity against multidrug-resistant HIV1 isolate G containing L10I, V11I, T12E, I15V, L19I,R41K, M46L, L63P, A71T, V82A, and L90M mutant infected in human PHA-PBMC cells by p24 Gag protein production inhibition assay; settings: Human immunodeficiency virus 1, isolate G
[23] = system: Human immunodeficiency virus 1; assay: Antiviral activity against HIV1 expressing protease L23I/E34Q/K43I/M46I/I50L/G51A/L63P/A71V/V82A/T91A mutant infected in human MT4 cells selected at 5 uM of atazanavir by p24 Gag protein production inhibition assay; settings: Human immunodeficiency virus 1, MT4
[24] = system: Human immunodeficiency virus 1; assay: Antiviral activity against HIV1 LAI infected in human MT2 cells by MTT assay; type: functional, organism-based; settings: Human immunodeficiency virus 1, LAI
[25] = system: Human immunodeficiency virus 1; assay: Antiviral activity against wild type HIV1 ERS104 containing protease L63P mutant infected in human PHA-PBMC cells by p24 Gag protein production inhibition assay; settings: Human immunodeficiency virus 1, ERS104, PBMC
[26] = system: Human immunodeficiency virus 1; assay: Antiviral activity against HIV1 expressing protease L10F/M46I/I50V/A71V/I84V/L90M mutant infected in human MT4 cells selected at 5 uM of amprenavir by p24 Gag protein production inhibition assay; settings: Human immunodeficiency virus 1, MT4
[27] = system: Human immunodeficiency virus 1; assay: Antiviral activity against HIV1 expressing protease L10F/M46I/I54V/V82A mutant infected in human MT4 cells selected at 5 uM of Lopinavir by p24 Gag protein production inhibition assay; settings: Human immunodeficiency virus 1, MT4
[28] = Selectivity ratio of CC50 for human MT2 cells to EC50 for HIV1 LAI infected human MT2 cells; type: ADME, cell-based; settings: MT2 cells (CC50) and HIV1 LAI infected MT2 cells (EC50)
[29] = system: Human immunodeficiency virus 1; assay: Antiviral activity against HIV1 NL4-3 infected in human MT4 cells at 1 uM after 37 passages by MTT assay; type: functional, organism-based
[30] = system: Human immunodeficiency virus 1; assay: Ratio of EC50 for multidrug-resistant HIV1 isolate C containing protease L10I, I15V, K20R, L24I, M36I, M46L, I54V, I62V, L63P, K70Q, V82A, and L89M mutant to EC50 for wild type HIV1 ERS104 containing protease L63P mutant infected in human PHA-PBMC cells
[31] = system: Human immunodeficiency virus type 1 protease (Human immunodeficiency virus 1), Q72874 [L24I,V82I,I84V]; assay: Inhibition of protease L24I/V82I/I84V[…] dimerization in HIV1 infected in COS7 cells at 0.1 uM by FRET based assay; type: cell-based; settings: COS-7
[32] = system: Human immunodeficiency virus 1; assay: Antiviral activity against HIV1 NL4-3 infected in human MT4 cells at 0.26 uM after 50 passages by MTT assay; type: functional, organism-based

| Structure (SMILES) | EC50 [1] | EC50 [3] | CC50 at 168 h [4] | EC50 [5] | EC50 [6] | EC50 [7] | EC50 [8] | EC50 [10] | EC50 [11] | EC50 [12] | EC50 [14] | inhibition [16] | EC50 [17] | EC50 [18] | EC50 [19] | EC50 [21] | EC50 [22] | EC50 [23] | EC50 [24] | EC50 [25] | also measured |
| --- | --- | --- | --- | --- | --- | --- | --- | --- | --- | --- | --- | --- | --- | --- | --- | --- | --- | --- | --- | --- | --- |
| COc1ccc2c(c1)OCCC/C=C\CCCCN(C[C@@H](O)[C@H](Cc1ccccc1)NC(=O)O[C@H]1CO[C@H]3OCC[C@H]31)S2(=O)=O | 89 nM | 29 nM | 33100 nM | 25 nM | 330 nM | 55 nM | 250 nM | > 1000 nM | 46 nM | 210 nM | 9 nM | Active | 190 nM | 72 nM | 41 nM | 18 nM | 28 nM | 30 nM | 4 nM | 7 nM | Activity [2]: inactive; Ratio EC50 [9]: 15; Activity [13]: inactive; Ratio EC50 [15]: 4; Activity [20]: inactive; EC50 [26]: > 1000 nM; EC50 [27]: 350 nM; selectivity ratio [28]: 8280; Activity [29]: inactive; Ratio EC50 [30]: 4 |
| COc1ccc2c(c1)OCC/C=C\CCCCN(C[C@@H](O)[C@H](Cc1ccccc1)NC(=O)O[C@H]1CO[C@H]3OCC[C@H]31)S2(=O)=O | 37 nM | 44 nM | 48800 nM | 17 nM | 300 nM | 33 nM | 73 nM | > 1000 nM | 20 nM | 73 nM | 5 nM | Active | 94 nM | 27 nM | 40 nM | 10 nM | 57 nM | 23 nM | 2 nM | 5 nM | inhibition [31]: Active; Activity [32]: Active; EC50 [26]: > 1000 nM; EC50 [27]: 35 nM |

Reference: ChEMBL document CHEMBL1649305, “Novel protease inhibitors (PIs) containing macrocyclic components and 3(R),3a(S),6a(R)-bis-tetrahydrofuranylurethane that are potent against multi-PI-resistant HIV-1 variants in vitro” (Antimicrob Agents Chemother, 2010)
